Biological target: T1, amyloid-β (Aβ40) (Homo sapiens, UniProt P05067)
T1 construct: gene APP; Aβ40
Test: ITC and 2D 1H-15N SOFAST-HMQC NMR (below and above the CAC)
Assay type: binding

T1 sequence (P05067 672-711 limits assumed): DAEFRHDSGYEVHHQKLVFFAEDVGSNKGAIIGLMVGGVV

SMILES	ITC and 2D 1H-15N SOFAST-HMQC NMR (below and above the CAC)
CCCCCCCCCCCCC/C=C/[C@@H](O)[C@H](CO)NC(C)=O [N-Ac-SP, (2S,3R,4E)-2-(acetylamino)-4-octadecene-1,3-diol]	Interactions between the two acetylsphingosines and Aβ exhibited spontaneous complexation showing an endothermic process
CCCCCCCCCCCCC/C=C/[C@H](OC(C)=O)[C@@H](N)CO [3-O-Ac-SP, (2S,3S,E)-2-amino-1-hydroxyoctadec-4-en-3-yl acetate]	These observations indicate weak and nonspecific interactions of both N-Ac-SP and 3-O-Ac-SP towards Aβ.
CCCCCCCCCCCCC/C=C/[C@@H](O)[C@@H](N)CO [SP, (2S,3R)-2-aminooctadec-4-trans-ene-1,3-diol]	For the association of SP with Aβ, an endothermic isotherm was recorded with negative Gibbs free energy change
